This passage reports IC50 and inhibition results from patent US20230265104A1, “NOVEL HETEROCYCLIC COMPOUNDS” (PRISM BIOLAB CO., LTD., priority 2020, published 2023).

This assay has as its system PANC-1 (human pancreatic cancer-derived cell line). Put plainly: MTS assay on Panc-1 (human pancreas carcinoma cell line). Format: cell-based. Conditions: 144 h; for IC50: PANC-1, MTS method, cell survival 6 days after exposure, 4-parameter logistic fit; for inhibition at 10 µM: read-out: Growth inhibition (%) 10 μM. Here is the method: Experimental Example: MTS Assay on Panc-1 (Human Pancreas Carcinoma Cell Line) cell line name: PANC-1 derived from: human pancreas glandular cancer purchased from: ATCC product code: CRL-1469 proliferation medium: D-MEM+10% FBS culture environment: 37° C., 5% CO2 seeding density: 5.0×10^5 cells/25 cm^2 solvent control substance: DMSO (HYBRI-MAX®, Sigma-Aldrich Corp.) test substance: Example compound (ID-1-ID-13) A DMSO solution of the test substance was prepared by serially diluting (common ratio 2) each test substance with DMSO.
A solvent control substance sample and a test substance sample were exposed to a human pancreatic cancer-derived cell line (PANC-1), and the survival rate of the cell 6 days later was measured by the MTS method. The measurement was performed 3 times and the average thereof was adopted. The survival rate of the cell in each test substance sample was calculated by the following formula 1 with the value at exposure of the solvent control substance sample as 100% survival rate. […]
survival rate (%)=100×absorbance of each test substance sample/absorbance of solvent control substance sample formula 1 Normalized values calculated by the following formula 2 from the absorbances of each sample at 492 nm and 630 nm and the absorbances of the blank were used as the absorbances in the above-mentioned formula 1. […]
normalized value (ABS492 nm-630 nm)=(ABSsa 492 nm-ABSsa 630 nm)−(ABSbl 492 nm-ABSbl 630 nm) ABSsa 492: absorbance of each sample at wavelength 492 nm ABSsa 630: absorbance of each sample at wavelength 630 nm ABSbl 492: absorbance of blank corresponding to each sample at wavelength 492 nm ABSbl 630: absorbance of blank corresponding to each sample at wavelength 630 nm formula 2 […]
The analysis was performed by using nplr package on R (The R Foundation for Statistical Computing) and estimating the logistic regression curve (4-parameter).

Take `CC(C)C[C@H]1ON(C(=O)/C=C/c2ccccn2)[C@H]2CN(C3CCN(C4CCN(C(C)C)CC4)CC3)C(=O)[C@H](CC(C)C)N2C1=O` [ID-40, (3R,6S,9aS)-3,6-diisobutyl-8-(1′-isopropyl-[1,4′-bipiperidin]-4-yl)-1-((E)-3-(pyridin-2-yl)acryloyl)tetrahydropyrazino[2,1-c][1,2,4]oxadiazine-4,7(3H,6H)-dione]: 4000 nM corresponded to half-maximal inhibition (IC50). Also, the inhibition at 10 µM (PANC-1, MTS, 6 days) amounted to 102%. Regarding `CC(=O)N1CCC(N2CCC(N3C[C@@H]4N(C(=O)/C=C/c5ccccn5)O[C@H](CC(C)C)C(=O)N4[C@@H](CC(C)C)C3=O)CC2)CC1` [ID-41, (3R,6S,9aS)-8-(1′-acetyl-[1,4′-bipiperidin]-4-yl)-3,6-diisobutyl-1-((E)-3-(pyridin-2-yl)acryloyl)tetrahydropyrazino[2,1-c][1,2,4]oxadiazine-4,7(3H,6H)-dione], the IC50 worked out at 6300 nM. The inhibition at 10 µM (PANC-1, MTS, 6 days) came out at 98.5%. On to `CC(C)C[C@H]1ON(C(=O)/C=C/[C@@H]2CCCN2C)[C@H]2CN(CCC(N)=O)C(=O)[C@H](CC(C)C)N2C1=O` [ID-42, 3-((3R,6S,9aS)-3,6-diisobutyl-1-((E)-3-((S)-1-methylpyrrolidin-2-yl)acryloyl)-4,7-dioxohexahydropyrazino[2,1-c][1,2,4]oxadiazin-8(1H)-yl)propanamide], for which the inhibition at 10 µM (PANC-1, MTS, 6 days) was 65.3%. Molecule `CC(C)C[C@H]1ON(C(=O)/C=C/[C@H]2CCCN2C)[C@H]2CN(CCC(N)=O)C(=O)[C@H](CC(C)C)N2C1=O` [ID-43, 3-((3R,6S,9aS)-3,6-diisobutyl-1-((E)-3-((R)-1-methylpyrrolidin-2-yl)acryloyl)-4,7-dioxohexahydropyrazino[2,1-c][1,2,4]oxadiazin-8 (1H)-yl)propanamide] registered an IC50 of 9400 nM. The inhibition at 10 µM (PANC-1, MTS, 6 days) worked out at 78.5%. Take `CC(C)C[C@H]1ON(C(=O)/C=C/c2ccnn2C)[C@H]2CN(C3CCN(C)CC3)C(=O)[C@H](CC(C)C)N2C1=O` [ID-44, (3R,6S,9aS)-3,6-diisobutyl-1-((E)-3-(1-methyl-1H-pyrazol-5-yl)acryloyl)-8-(1-methylpiperidin-4-yl)tetrahydropyrazino[2,1-c][1,2,4]oxadiazine-4,7(3H,6H)-dione]: where the note is “PANC-1, MTS, 6 days”, the inhibition at 10 µM turned out to be 94.7%. Consider `CC(=O)N1CCC(N2C[C@@H]3N(C(=O)/C=C/c4nc5ccccc5s4)O[C@H](CC(C)C)C(=O)N3[C@@H](CC(C)C)C2=O)CC1` [ID-45, (3R,6S,9aS)-8-(1-acetylpiperidin-4-yl)-1-((E)-3-(benzo[d]thiazol-2-yl)acryloyl)-3,6-diisobutyltetrahydropyrazino[2,1-c][1,2,4]oxadiazine-4,7(3H,6H)-dione], for which the IC50 was determined as 810 nM. For the same molecule, under “PANC-1, MTS, 6 days”, the inhibition at 10 µM turned out to be 101%. The molecule `CC(C)C[C@H]1ON(C(=O)/C=C/c2nc3ccccc3o2)[C@H]2CN(C3CCN(C)CC3)C(=O)[C@H](CC(C)C)N2C1=O` [ID-46, (3R, 6S, 9aS)-1-((E)-3-(benzo[d]oxazol-2-yl)acryloyl)-3,6-diisobutyl-8-(1-methylpiperidin-4-yl)tetrahydropyrazino[2,1-c][1,2,4]oxadiazine-4,7(3H,6H)-dione] yielded an IC50 of 1400 nM. Under “PANC-1, MTS, 6 days”, the inhibition at 10 µM came out at 99.1%. Regarding `CC(C)C[C@H]1ON(C(=O)/C(Cl)=C/c2ccccn2)[C@H]2CN(C3CCN(C)CC3)C(=O)[C@H](CC(C)C)N2C1=O` [ID-47, (3R,6S,9aS)-1-((Z)-2-chloro-3-(pyridin-2-yl)acryloyl)-3,6-diisobutyl-8-(1-methylpiperidin-4-yl)tetrahydropyrazino[2,1-c][1,2,4]oxadiazine-4,7(3H,6H)-dione], the IC50 stood at 10000 nM. Besides, under “PANC-1, MTS, 6 days”, the inhibition at 10 µM was found to be 66.6%. As for `CC(C)C[C@H]1ON(C(=O)/C=C/c2cc(C#N)ccn2)[C@H]2CN(C3CCN(C)CC3)C(=O)[C@H](CC(C)C)N2C1=O` [ID-48, 2-((E)-3-((3R,6S,9aS)-3,6-diisobutyl-8-(1-methylpiperidin-4-yl)-4,7-dioxohexahydropyrazino[2,1-c][1,2,4]oxadiazin-1(6H)-yl)-3-oxoprop-1-en-1-yl)isonicotinonitrile], the IC50 was found to be 580 nM. Besides, the inhibition at 10 µM (PANC-1, MTS, 6 days) is 100%. Turning to `CC(C)C[C@H]1ON(C(=O)/C=C/c2cc3n(n2)CCOC3)[C@H]2CN(C3CCN(C)CC3)C(=O)[C@H](CC(C)C)N2C1=O` [ID-49, (3R,6S,9aS)-1-((E)-3-(6,7-dihydro-4H-pyrazolo[5,1-c][1,4]oxazin-2-yl)acryloyl)-3,6-diisobutyl-8-(1-methylpiperidin-4-yl)tetrahydropyrazino[2,1-c][1,2,4]oxadiazine-4,7 (3H, 6H)-dione], for the setting “PANC-1, MTS, 6 days”, the inhibition at 10 µM is 74.9%.

`CC(C)C[C@H]1ON(C(=O)/C=C/c2nc3ccccc3s2)[C@H]2CN(C3CCN(C(=O)c4ncc(F)cn4)CC3)C(=O)[C@H](CC(C)C)N2C1=O` [ID-50, (3R,6S,9aS)-1-((E)-3-(benzo[d]thiazol-2-yl)acryloyl)-8-(1-(5-fluoropyrimidine-2-carbonyl)piperidin-4-yl)-3,6-diisobutyltetrahydropyrazino[2,1-c][1,2,4]oxadiazine-4,7(3H,6H)-dione] yielded an IC50 of 590 nM. Also, the inhibition at 10 µM (PANC-1, MTS, 6 days) was determined as 101%. Take `CC(C)C[C@H]1ON(C(=O)/C=C/c2cccc(=O)[nH]2)[C@H]2CN(C3CCN(C)CC3)C(=O)[C@H](CC(C)C)N2C1=O` [ID-51, (3R,6S,9aS)-3,6-diisobutyl-8-(1-methylpiperidin-4-yl)-1-((E)-3-(6-oxo-1,6-dihydropyridin-2-yl)acryloyl)tetrahydropyrazino[2,1-c][1,2,4]oxadiazine-4,7(3H,6H)-dione]: for the setting “PANC-1, MTS, 6 days”, the inhibition at 10 µM came out at 47.5%. The molecule `CC(C)C[C@H]1ON(C(=O)/C=C/c2nc3cc(F)ccc3s2)[C@H]2CN(C3CCN(C)CC3)C(=O)[C@H](CC(C)C)N2C1=O` [ID-52, (3R,6S,9aS)-1-((E)-3-(5-fluorobenzo[d]thiazol-2-yl)acryloyl)-3,6-diisobutyl-8-(1-methylpiperidin-4-yl)tetrahydropyrazino[2,1-c][1,2,4.]oxadiazine-4,7(3H,6H)-dione] came in with an IC50 of 480 nM. Also, the inhibition at 10 µM (PANC-1, MTS, 6 days) was determined as 101%. The molecule `CC(C)C[C@H]1ON(C(=O)/C=C/c2ncco2)[C@H]2CN(C3CCN(C)CC3)C(=O)[C@H](CC(C)C)N2C1=O` [ID-53, (3R,6S,9aS)-3,6-diisobutyl-8-(1-methylpiperidin-4-yl)-1-((E)-3-(oxazol-2-yl)acryloyl)tetrahydropyrazino[2,1-c] [1,2,4]oxadiazine-4,7(3H,6H)-dione] showed an IC50 of 1200 nM. In addition, the inhibition at 10 µM (PANC-1, MTS, 6 days) came out at 100%. As for `CC(C)C[C@H]1ON(C(=O)/C=C/c2cscn2)[C@H]2CN(C3CCN(C)CC3)C(=O)[C@H](CC(C)C)N2C1=O` [ID-54, (3R,6S,9aS)-3,6-diisobutyl-8-(1-methylpiperidin-4-yl)-1-((E)-3-(thiazol-4-yl)acryloyl)tetrahydropyrazino[2,1-c] [1,2,4]oxadiazine-4,7(3H,6H)-dione], the inhibition at 10 µM (PANC-1, MTS, 6 days) came to 57%. The molecule `CC(C)C[C@H]1ON(C(=O)/C=C/c2ncc(Cl)cn2)[C@H]2CN(C3CCN(C)CC3)C(=O)[C@H](CC(C)C)N2C1=O` [ID-55, (3R,6S,9aS)-1-((E)-3-(5-chloropyrimidin-2-yl)acryloyl)-3,6-diisobutyl-8-(1-methylpiperidin-4-yl)tetrahydropyrazino[2,1-c][1,2,4]oxadiazine-4,7(3H,6H)-dione] came in with an IC50 of 460 nM. Moreover, where the note is “PANC-1, MTS, 6 days”, the inhibition at 10 µM was 99.8%. For `CC(C)C[C@H]1ON(C(=O)/C=C/c2csc(N3CCOCC3)n2)[C@H]2CN(C3CCN(C)CC3)C(=O)[C@H](CC(C)C)N2C1=O` [ID-56, (3R,6S,9aS)-3,6-diisobutyl-8-(1-methylpiperidin-4-yl)-1-((E)-3-(2-morpholinothiazol-4-yl)acryloyl)tetrahydropyrazino[2,1-c][1,2,4]oxadiazine-4,7 (3H, 6H)-dione], the inhibition at 10 µM (PANC-1, MTS, 6 days) came to 95.3%. In the case of `CC(C)C[C@H]1ON(C(=O)/C=C/c2ccccn2)[C@H]2CN(C3CCN(C)CC3)C(=O)[C@H](CCCCNCc3ccccc3)N2C1=O` [ID-57, (3R,6S,9aS)-6-(4-(benzylamino)butyl)-3-isobutyl-8-(1-methylpiperidin-4-yl)-1-((E)-3-(pyridin-2-yl)acryloyl)tetrahydropyrazino[2,1-c][1,2,4]oxadiazine-4,7(3H,6H)-dione], inhibition was half-maximal at 1000 nM (IC50). Moreover, the inhibition at 10 µM (PANC-1, MTS, 6 days) is 101%. As to `CC(C)C[C@H]1C(=O)N(C2CCN(C)CC2)C[C@@H]2N(C(=O)/C=C/c3nc4ccccc4s3)c3ccccc3C(=O)N21` [ID-58, (4S,11aS)-11-((E)-3-(benzo[d]thiazol-2-yl)acryloyl)-4-isobutyl-2-(1-methylpiperidin-4-yl)-1,2,11,11a-tetrahydro-6H-pyrazino[2,1-b]quinazoline-3,6(4H)-dione], the IC50 came out at 560 nM. The inhibition at 1 µM (PANC-1, MTS, 6 days, 1 μM, read-out: Growth inhibition (%) 1 μM) worked out at 78.4%.
